Assay results: patent publication US20260199282A1, “METHODS AND COMPOSITIONS FOR IMPROVING DRIVING PERFORMANCE” (priority 2022, published 2026)
“And” between values parts separate entries of the source, which are not always exact repeats. Equal entries are not always repeated.

Columns and labels:
[1] = system: participants with narcolepsy; test: Safety / adverse events, narcolepsy study; assay type: in vivo, human
Description: Safety assessments included a physical examination, ECG, clinical laboratory tests, and assessment of adverse events (AEs).
Demographic, narcolepsy history, and safety data were summarized for the safety population, which included all participants who received ≥1 dose of study drug. No formal statistical testing was performed on these parameters.

[2] = system: participants with narcolepsy; settings: 12 weeks; 75 to 300 mg/day; cited from earlier work
[3] = system: subjects with EDS due to OSA; parameters: species or system human; settings: in vivo
[4] = system: subjects with EDS due to OSA; test: Safety / adverse events, OSA study; assay type: in vivo, human
Description: The incidence of treatment-emergent adverse events was summarized by treatment. Descriptive statistics were presented for vital sign results. No formal statistical testing was performed for the safety analyses.
The use of vital signs, clinical laboratory tests, standard AE reporting, and the questionnaires that were selected to assess the safety of the study drug were appropriate since they are routinely used to assess the safety profile of drugs in clinical studies and pertinent to known risks of solriamfetol. The C-SSRS is able to determine clinically meaningful points at which a person may be at risk for an impending suicide attempt (Posner 2011).

[5] = system: participants with narcolepsy; parameters: species or system human; settings: in vivo
[6] = system: participants with narcolepsy; test: Standardized on-road driving test, narcolepsy study; assay type: in vivo, human; settings: for SDLP, observed mean (SD) / SDLP, median / SDLP, median difference (range), solriamfetol - placebo: day 7, 300 mg/day; for SDLP, median / SDLP, median difference (range), solriamfetol - placebo: mITT
Description: In this randomized, double-blind, placebo-controlled, crossover study, driving performance during a 1-hour on-road driving test was assessed at 2 hours and 6 hours post-dose following 7 days of treatment with solriamfetol (150 mg/day for 3 days, followed by 300 mg/day for 4 days) or placebo. The primary endpoint was standard deviation of lateral position (SDLP) at 2 hours post-dose.
At the end of each treatment period, a standardized on-road driving test (Verster & Roth, 2011) was conducted at 2 hours and at 6 hours after administration of drug or placebo (FIG. 1A). For each test (~1 hour in duration), participants drove a specially instrumented vehicle over a 100 km (~62 miles) primary highway circuit; they were accompanied by a licensed driving instructor with access to dual controls (brakes, clutch, accelerator). Participants were instructed to maintain both a steady lateral position between the delineated boundaries of the slower (right) traffic lane and a constant speed of 95 km/h (~59 mph). Participants were permitted to deviate from these instructions only to pass a slower vehicle, to respond to slower traffic ahead, or to exit and reenter the highway at the turnaround point (these events were removed for the purpose of data analysis by 2 experienced editors of the driving data). Vehicle speed and lateral distance to the left-lane line were continuously recorded, and the data stored on an onboard computer. The driving test could be stopped by the participant or by the accompanying driving instructor if considered it unsafe to continue.
The primary outcome assessment from the driving tests was standard deviation of lateral position (SDLP) in centimeters—a measure of “weaving” or road-tracking control (Ramaekers, 2017; Verster & Roth, 2011). […] Standard deviation of speed and number of lane drifts (defined as deviations>100 cm from the absolute lateral position within an 8-second window) were also determined from driving test data.
Change in SDLP was analyzed with a repeated mixed-effects analysis of variance (ANOVA).
Maximally selected McNemar symmetry analyses (Laska, Meisner, & Wanderling, 2012) were used to detect asymmetry in the distribution of the change in driving performance at 2 hours and 6 hours post-dose. Single McNemar tests were used to analyze the difference in proportions of participants with improved or impaired driving performance at relevant thresholds. Thresholds of 1.0, 1.5, 2.0, 2.5, 3.0, and 3.5 cm were used.
(§1) Additional secondary efficacy measures (standard deviation of speed, number of lane drifts, and THAT scores) were analyzed using a similar ANOVA method as described for SDLP. No multiplicity adjustments were made in the efficacy analyses for multiple endpoints, and all p values are therefore nominal.

[7] = system: subjects with EDS due to OSA; test: Toronto Hospital Alertness Test (THAT), OSA study; assay type: in vivo, human
Description: THAT is analyzed using a mixed effect analysis of covariance (ANCOVA) model. The model includes baseline, treatment (JZP-110 and placebo), treatment period, treatment sequence as fixed effects and subject as a random effect. *p-value is nominal.
The THAT is a 10-item self-report questionnaire designed to measure perceived alertness in the preceding week (Shapiro 2006). The test was administered at baseline and prior to administration of study drug at Visits 4 and 5

[8] = system: participants with narcolepsy; test: Toronto Hospital Alertness Test (THAT), narcolepsy study; assay type: in vivo, human; settings: end of 7-day treatment period
Description: The Toronto Hospital Alertness Test (THAT) is a 10-item self-report questionnaire that measures perceived alertness over the previous week; scores can range from 0 to 50, with higher scores indicating greater alertness (Shapiro et al., 2006). This assessment was administered at the end of each 7-day treatment period to evaluate participants' perceived alertness throughout the treatment period.
as §1

With `NC(=O)OC[C@H](N)Cc1ccccc1` [Solriamfetol, (R)-2-amino-3-phenylpropyl carbamate] the “serious or fatal TEAEs” value ([1]; in vivo) was “no serious or fatal TEAEs”, the “participants experiencing a TEAE, n (%)” value ([1]; while on solriamfetol) was 17 (74%) and the “discontinuation due to AEs” value ([1]; while taking solriamfetol) was “No participant discontinued”. The “Maintenance of Wakefulness Test, treatment difference from placebo (least squares mean)” value [2] was 2.6 to 10.1 min, the “PVT errors, LS mean (SE)” value [3] was 1.24 (0.58) n/trial and 1.84 (0.58) n/trial and the “PVT inverse reaction time, LS mean (SE)” value [3] was 3.53 (0.04) 1/ms and 3.64 (0.04) 1/ms and 3.71 (0.04) 1/ms. The “PVT lapses, LS mean (SE)” value [3] was 3.82 (0.90) n/trial and 3.02 (0.90) n/trial and 3.98 (0.90) n/trial, the “subjects with TEAE considered related to study treatment” value ([4]; after receiving solriamfetol) was 35.3% and the “serious or fatal TEAEs” value ([4]; in vivo) was “no serious nor fatal TEAEs”. For the same compound, the “subjects with TEAE related or suspected related to study drug, n (%)” value ([4]; received solriamfetol) was 12 (35.3%), the “subjects experiencing TEAEs, n (%)” value ([4]; receiving solriamfetol) was 17 (50.0%) and the “PVT errors, LS mean (SE)” value [5] was 1.11 (0.42) n/trial and 1.39 (0.42) n/trial and 1.34 (0.32) n/trial. The “PVT inverse reaction time, LS mean (SE)” value [5] was 3.41 (0.07) 1/ms and 3.80 (0.07) 1/ms and 3.72 (0.07) 1/ms, the “PVT lapses, LS mean (SE)” value [5] was 6.63 (1.61) n/trial and 3.35 (1.61) n/trial and 4.52 (1.61) n/trial and the “PVT mean reaction time, LS mean (SE)” value [5] was 582 (148.4) ms and 317 (148.4) ms and 319 (148.4) ms. The “maximum McNemar test, improved vs impaired driving” value ([6]; 2 hours and 6 hours post-dose, thresholds 1.0 to 3.5 cm) was “did not show asymmetry”, the “number of lane drifts, LS mean (SE)” value ([6]; 2 hours post-dose) was 2.3 (0.8) and the “number of lane drifts, LS mean difference vs placebo” value ([6]; 2 hours post-dose) was −0.98. The “standard deviation of speed, LS mean (SE)” value ([6]; 2 hours post-dose) was 2.8 (0.2) km/h, the “standard deviation of speed, LS mean difference vs placebo” value ([6]; 2 hours post-dose) was −0.22 km/h and the “SDLP, observed mean (SD)” value ([6]; 2 hours post-dose) was 19.0 (3.6) cm and 18.97 cm. For the same compound, the “SDLP, median” value ([6]; 2 hours post-dose) was 19.08 cm, the “SDLP, median difference (range), solriamfetol - placebo” value (“SDLP, median difference (range)” for short) ([6]; 2 hours post-dose) was −1.9 (−6.7 to 2.6) cm and the “SDLP, median difference (range)” value ([6]; 2 hours post-dose, listed as solriamfetol) was −1.9 cm and −1.90 cm. For the same compound, the “participants with incomplete driving tests” value ([6]; 2 hours post-dose, on solriamfetol) was “Four”, the “number of lane drifts, LS mean (SE)” value ([6]; 6 hours post-dose) was 3.6 (0.8) and the “number of lane drifts, LS mean difference vs placebo” value ([6]; 6 hours post-dose) was −0.08. The “standard deviation of speed, LS mean (SE)” value ([6]; 6 hours post-dose) was 3.1 (0.2) km/h, the “standard deviation of speed, LS mean difference vs placebo” value ([6]; 6 hours post-dose) was −0.11 km/h and the “SDLP, observed mean (SD)” value ([6]; 6 hours post-dose) was 19.8 (3.5) cm. The “SDLP, median” value ([6]; 6 hours post-dose) was 19.59 cm, the “SDLP, median difference (range)” value ([6]; 6 hours post-dose) was −1.1 (−12.1 to 6.0) cm and the “SDLP, median difference (range)” value ([6]; 6 hours post-dose, listed as solriamfetol) was −1.1 cm. The “participants with incomplete driving tests” value ([6]; 6 hours post-dose, on solriamfetol) was “Three”, the driving tests stopped ([6]; on solriamfetol, 7/44 tests) was 16% and the “participants with ≥1 incomplete test” value ([6]; while on solriamfetol, either time point) was 5. The “THAT total score, LS mean difference, sensitivity analysis” value ([7]; PP population) was 2.983, the “THAT total score, LS mean (SE)” value ([7]; end of treatment period, mITT) was 27.52 and the “THAT total score, mean (SD)” value ([7]; end of treatment period, mITT) was 27.5 (7.60). For the same compound, the “THAT total score, median” value ([7]; end of treatment period, mITT) was 28.5, the “THAT total score, LS mean (SE)” value ([7]; end of treatment period, mITT, listed as JZP-110) was 27.52 (1.162) and the “THAT median total score, difference vs placebo” value ([7]; mITT) was 4.0. For the same compound, the “THAT total score, LS mean difference (JZP-110 − Placebo)” value ([7]; mITT) was 3.579, the “THAT score, LS mean (SE)” value [8] was 34.0 (1.4) and the “THAT score, LS mean difference solriamfetol vs placebo” value [8] was 7.1.
